From US10221163B2 (priority 2015, dated 2019)
Read-outs that look alike come from different tables or passages of the source.

What was measured:
[1] = tested on: Serratia marcescens expressing IMP-1 (CL5741); type: cell-based; details: for Serratia marcescens expressing IMP-1 (CL5741) MITC95: with imipenem 1 μg/ml; for Serratia marcescens MITC95: IMP-1 strain CL5741, with imipenem 1 μg/ml
How it was run: (§1)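 Growth by absorbance after 22–24 h at 35°C defined the read-out, with imipenem fixed at 1 μg/ml alongside compound. Inocula came from overnight blood-agar colonies at 35°C, resuspended in saline and diluted 1:100 in 1.1×CAMHB.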

[2] = tested on: Klebsiella pneumoniae expressing VIM-1 (IHMA599644); type: cell-based; details: for Klebsiella pneumoniae expressing VIM-1 (IHMA599644) MITC95: with imipenem 1 μg/ml; for Klebsiella pneumoniae MITC95: VIM-1 strain IHMA599644, with imipenem 1 μg/ml
How it was run: as §1

[3] = tested on: Escherichia coli expressing NDM-1 (CLB30005, CLB30016); type: cell-based; details: with imipenem 1 μg/ml; for Escherichia coli MITC95: NDM-1 strain
How it was run: as §1

[4] = molecular target: VIM-1 (Pseudomonas aeruginosa (strain ATCC 15692 / DSM 22644 / CIP 104116 / JCM 14847 / LMG 12228 / 1C / PRS 101 / PAO1), UniProt A0A0F7KYQ8); test: biochemical; details: CCF2-FA substrate, 30 pM enzyme, 2 hours at 25° C.
How it was run: (§2)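 IC50 values derive from 4-parameter fits of percent inhibition against inhibitor concentration on semi-log axes. Activity was monitored by fluorescence with the CCF2-FA substrate after a 2-hour, 25° C incubation of compound, enzyme and substrate.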

[5] = tested on: Pseudomonas aeruginosa efflux+ (MB9798), IMP-1; type: cell-based; set-up: Concentration of metallo-β-lactamase inhibitor which restores susceptibility of efflux + (MB9798) strain to imipenem: unit not given here; details: C, D serine β-lactamase inhibitor closely related to relebactam; for P. aeruginosa expressing IMP-1, efflux + (MB9798) MITC95: concentration restoring susceptibility to imipenem at 2 μg/mL in the presence of a class A; for Concentration of metallo-β-lactamase inhibitor which restores susceptibility of efflux + (MB9798) strain to imipenem: imipenem at 2 μg/mL, in the presence of a class A
How it was run: (§3)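 Steps: add fixed imipenem and/or ceftazidime (usually CLSI breakpoint) and fixed AmpC-directed class A/C inhibitor to microbroth MIC wells; titrate MBL inhibitor; record concentration regaining susceptibility for each PAO1-derived strain; divide efflux+ by efflux− value.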

[6] = molecular target: NDM-1 (Klebsiella pneumoniae, UniProt C7C422); test: biochemical; type: biochemical; details: fluorescence assay, CCF2-FA substrate, 1 pM enzyme, 2 hours at 25° C.; read-out: NDM-1 IC50
How it was run: as §2

[7] = molecular target: IMP-1 (Serratia marcescens, UniProt P52699); test: biochemical; type: biochemical; details: fluorescence assay, CCF2-FA substrate, 2 pM enzyme, 2 hours at 25° C.; read-out: IMP-1 IC50
How it was run: as §2

[8] = tested on: Pseudomonas aeruginosa MB9798 vs MB9799
How it was run: as §3

[9] = tested on: Pseudomonas aeruginosa efflux− (MB9799), IMP-1; type: cell-based; details: C, D serine β-lactamase inhibitor closely related to relebactam; for P. aeruginosa expressing IMP-1, efflux − (MB9799) MITC95: concentration restoring susceptibility to imipenem at 2 μg/mL in the presence of a class A; for Concentration of metallo-β-lactamase inhibitor which restores susceptibility of efflux − (MB9799) strain to imipenem: imipenem at 2 μg/mL, in the presence of a class A
How it was run: as §3

[10] = 95% inhibition of bacterial growth
[11] = fluorescence assay, read-out: VIM-1 IC50
[12] = ratio MITC95 PA_9798/MITC95 PA_9799
[13] = fold difference between efflux+ (MB9798) and efflux− (MB9799) strains, imipenem at 2 μg/mL

Chain of IMP-1 (P52699 whole entry, looked up, species assumed): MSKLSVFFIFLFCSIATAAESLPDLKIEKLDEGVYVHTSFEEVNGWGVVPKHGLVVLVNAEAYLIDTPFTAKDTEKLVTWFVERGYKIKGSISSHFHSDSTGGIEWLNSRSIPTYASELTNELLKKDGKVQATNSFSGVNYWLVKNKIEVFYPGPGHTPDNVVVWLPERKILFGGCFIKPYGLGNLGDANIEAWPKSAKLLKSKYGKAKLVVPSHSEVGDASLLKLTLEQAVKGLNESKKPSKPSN
Chain of NDM-1 (C7C422 whole entry, looked up, species assumed): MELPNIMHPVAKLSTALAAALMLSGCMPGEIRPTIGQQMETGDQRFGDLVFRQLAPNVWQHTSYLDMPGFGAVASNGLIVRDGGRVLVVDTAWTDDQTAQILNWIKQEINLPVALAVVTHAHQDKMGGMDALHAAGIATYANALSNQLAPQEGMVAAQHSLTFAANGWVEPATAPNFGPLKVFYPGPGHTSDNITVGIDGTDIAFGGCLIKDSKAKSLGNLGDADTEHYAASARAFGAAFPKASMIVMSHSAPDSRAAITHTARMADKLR

Structure (SMILES)	Serratia marcescens expressing IMP-1 (CL5741) MITC95 [1, 10] [µM]	Klebsiella pneumoniae expressing VIM-1 (IHMA599644) MITC95 [2, 10] [µM]	Escherichia coli expressing NDM-1 (CLB30016) MITC95 [3, 10] [µM]	IC50 [4, 11] [nM]	P. aeruginosa expressing IMP-1, efflux + (MB9798) MITC95 [5] [µM]	IC50 [6] [nM]	IC50 [7] [nM]	Efflux ratio [8, 12]	P. aeruginosa expressing IMP-1, efflux − (MB9799) MITC95 [9] [µM]	Serratia marcescens MITC95 ([1]; 95% inhibition of growth) [µM]	Klebsiella pneumoniae MITC95 ([2]; 95% inhibition of growth) [µM]	Escherichia coli MITC95 ([3]; 95% inhibition of growth) [µM]	IC50 ([4]; VIM-1 IC50, fluorescence assay) [nM]	Concentration of metallo-β-lactamase inhibitor which restores susceptibility of efflux + (MB9798) strain to imipenem [5]	Efflux ratio [8, 13]	Concentration of metallo-β-lactamase inhibitor which restores susceptibility of efflux − (MB9799) strain to imipenem [9]	Serratia marcescens MITC95 [1, 10] [µM]	Klebsiella pneumoniae MITC95 [2, 10] [µM]	Escherichia coli MITC95 [3, 10] [µM]
CN([C@H]1CCNC1)S(=O)(=O)c1ccc(-c2cccc3sc(N)nc23)c(-c2nnn[nH]2)c1S(N)(=O)=O [Example 65, 4-(2-amino-1,3-benzothiazol-4-yl)-N1-methyl-N1-[(3S)-pyrrolidin-3-yl]-3-(1H-tetrazol-5-yl)benzene-1,2-disulfonamide]	3.125	3.125	6.25	1.43	3.125	0.464	0.703	2.00	1.563	–	–	–	–	–	–	–	–	–	–
Nc1ncccc1-c1ccc(S(=O)(=O)NC[C@@H](N)CO)c(S(N)(=O)=O)c1-c1nn[nH]n1 [Example 214, (R)-N1-(2-amino-3-hydroxypropyl)-4-(2-amino-pyridin-3-yl)-3-(2H-tetrazol-5-yl)benzene-1,2-disulfonamide]	1.563	3.125	0.7813	0.732	12.5	0.566	8.49	8.00	1.563	–	–	–	–	–	–	–	–	–	–
NCC(CN)NS(=O)(=O)c1ccc(-c2cccc(-c3nc[nH]n3)c2)c(-c2nn[nH]n2)c1S(N)(=O)=O [Example 227, N4-(1,3-diaminopropan-2-yl)-2-(2H-tetrazol-5-yl)-3′-(1H-1,2,4-triazol-3-yl)-[1,1′-biphenyl]-3,4-disulfonamide]	1.563	3.125	1.563	0.137	1.563	0.048	0.165	1.00	1.563	–	–	–	–	–	–	–	–	–	–
Nc1ccc(-c2ccc(S(=O)(=O)NC[C@@H]3CNCCN3)c(S(N)(=O)=O)c2-c2nn[nH]n2)cn1 [Example 312, (S)-4-(6-aminopyridin-3-yl)-N1-(piperazin-2-ylmethyl)-3-(2H-tetrazol-5-yl)benzene-1,2-disulfonamide]	–	–	–	–	1.563	0.216	0.586	1.00	1.563	0.7813	3.125	0.3906	0.28	–	–	–	–	–	–
Nc1nc2c(-c3ccc(S(=O)(=O)N[C@@H]4C[C@H]4N)c(S(N)(=O)=O)c3-c3nnn[nH]3)cccc2[nH]1 [Example 448, 4-(2-amino-1H-benzo[d]imidazol-4-yl)-N^1-((1R,2R)-2-aminocyclopropyl)-3-(1H-tetrazol-5-yl)benzene-1,2-disulfonamide]	–	–	–	0.557	–	0.151	0.988	–	–	1.563	6.25	0.7813	–	1.563	0.50	3.125	–	–	–
NCCNS(=O)(=O)c1ccc(-c2ccnc(N)c2)c(-c2nn[nH]n2)c1S(N)(=O)=O [Example 400]	–	–	–	0.244	–	0.598	1.42	–	–	0.3906	1.563	0.1953	–	1.563	2.00	0.7813	–	–	–
Nc1nc2c(-c3ccc(S(=O)(=O)N[C@@H]4CCCNC4)c(S(N)(=O)=O)c3-c3nnn[nH]3)cccc2s1 [Example 69, 4-(2-amino-1,3-benzothiazol-4-yl)-N1-[(3R)-piperidin-3-yl]-3-(1H-tetrazol-5-yl)benzene-1,2-disulfonamide]	1.563	3.125	0.7813	–	0.7813	0.0323	0.184	0.50	1.563	–	–	–	0.185	–	–	–	–	–	–
NCCN1CC[C@@H](NS(=O)(=O)c2ccc(-c3ccc(N)nc3)c(-c3nn[nH]n3)c2S(N)(=O)=O)C1 [Example 500, (R)—N1-(1-(2-aminoethyl)pyrrolidin-3-yl)-4-(6-aminopyridin-3-yl)-3-(2H-tetrazol-5-yl)benzene-1,2-disulfonamide]	–	–	–	0.071	–	0.0347	0.164	–	–	–	–	–	–	1.563	1.00	1.563	1.563	3.125	1.563
CN1CCOC(CNS(=O)(=O)c2ccc(-c3cccc4sc(N)nc34)c(-c3nnn[nH]3)c2S(N)(=O)=O)C1 (stereo not drawn) [Example 17, 4-(2-amino-1,3-benzothiazol-4-yl)-N1-[(4-methylmorpholin-2-yl)methyl]-3-(1H-tetrazol-5-yl)benzene-1,2-disulfonamide]	6.25	12.5	12.5	0.41	12.5	0.0889	0.43	2.00	6.25	–	–	–	–	–	–	–	–	–	–
NC[C@H](CO)NS(=O)(=O)c1ccc(-c2cccc3sc(N)nc23)c(-c2nnn[nH]2)c1S(N)(=O)=O [Example 202, (R)—N^1-(1-amino-3-hydroxypropan-2-yl)-4-(2-aminobenzo[d]thiazol-4-yl)-3-(1H-tetrazol-5-yl)benzene-1,2-disulfonamide]	1.563	3.125	3.125	–	1.563	0.124	0.713	1.00	1.563	–	–	–	0.328	–	–	–	–	–	–
NCCNC(=O)c1cccc(-c2ccc(S(=O)(=O)NCCN)c(S(N)(=O)=O)c2-c2nn[nH]n2)c1 [Example 334, N-(2-aminoethyl)-4′-(N-(2-aminoethyl)sulfamoyl)-3′-sulfamoyl-2′-(2H -tetrazol-5-yl)-[1,1′-biphenyl]-3-carboxamide]	–	–	–	0.247	1.563	1.32	4.6	2.00	0.7813	0.7813	0.7813	0.3906	–	–	–	–	–	–	–
C[C@H](CN)NS(=O)(=O)c1ccc(-c2cccc(N)n2)c(-c2nn[nH]n2)c1S(N)(=O)=O [Example 318, (R)—N1-(1-aminopropan-2-yl)-4-(6-aminopyridin-2-yl)-3-(2H-tetrazol-5-yl) benzene-1,2-disulfonamide]	–	–	–	–	1.563	0.158	0.704	1.00	1.563	3.125	3.125	0.7813	0.142	–	–	–	–	–	–
